SMILES strings stand for the structures.

The experiment deals with T1, HMG-CoA reductase (Homo sapiens, UniProt P04035).
T1 construct: endogenous in cells; host or cells: HepG2 (Korea Cell Line Bank)
T1 sequence (P04035 1-888): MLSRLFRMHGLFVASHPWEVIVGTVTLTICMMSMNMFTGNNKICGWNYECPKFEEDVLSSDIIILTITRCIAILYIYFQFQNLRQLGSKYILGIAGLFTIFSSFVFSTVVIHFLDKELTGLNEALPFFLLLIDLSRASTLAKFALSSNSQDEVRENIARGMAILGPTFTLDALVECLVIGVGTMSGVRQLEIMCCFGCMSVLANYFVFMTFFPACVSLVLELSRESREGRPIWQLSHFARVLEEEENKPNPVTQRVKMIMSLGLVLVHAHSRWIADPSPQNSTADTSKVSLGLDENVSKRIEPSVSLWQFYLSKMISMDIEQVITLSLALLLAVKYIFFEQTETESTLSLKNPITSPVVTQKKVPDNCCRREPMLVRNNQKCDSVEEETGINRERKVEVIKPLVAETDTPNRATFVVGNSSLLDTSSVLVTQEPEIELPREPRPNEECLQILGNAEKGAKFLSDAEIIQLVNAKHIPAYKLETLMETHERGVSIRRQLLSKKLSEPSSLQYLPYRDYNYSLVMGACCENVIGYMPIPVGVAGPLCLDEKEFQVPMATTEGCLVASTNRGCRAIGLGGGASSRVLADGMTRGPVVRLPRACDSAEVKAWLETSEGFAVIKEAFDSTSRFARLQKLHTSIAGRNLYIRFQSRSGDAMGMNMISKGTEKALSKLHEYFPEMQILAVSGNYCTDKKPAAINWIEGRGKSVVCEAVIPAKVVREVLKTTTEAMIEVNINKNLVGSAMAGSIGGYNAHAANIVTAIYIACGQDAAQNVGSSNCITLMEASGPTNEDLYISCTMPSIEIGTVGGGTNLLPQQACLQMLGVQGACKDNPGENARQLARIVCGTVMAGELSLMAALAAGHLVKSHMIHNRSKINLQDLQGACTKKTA
As to the kind of experiment: HMG-CoA reductase (HMGCR) degradation in HepG2 cells by western blotting. Type of experiment: cell-based. The settings on record: treated for 18 hours, ratio of HMG-CoA reductase to GAPDH, read-out: DC50. Summed up: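 Western blot read-out: HMGCR protein probed (1:500, 16 hours at 4° C) alongside GAPDH loading control on 15 μg BCA-normalised RIPA lysates. Lysates came from HepG2 cells (P105–P110) exposed for 18 hours to a 10-point, three-fold series starting at 3 μM.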
Background: Immunoblotting shows a protein as a band on a membrane.
Regarding `C[C@H]1C=C2C=C[C@H](C)[C@H](CC[C@@H]3C[C@@H](O[Si](C)(C)C(C)(C)C)CC(=O)O3)[C@H]2[C@@H](OC(=O)NCCOCCOCCNC(=O)COc2cccc3c2C(=O)N(C2CCC(=O)NC2=O)C3=O)C1` (stereo partly drawn) [Compound 138, (1S,3R,7S,8S,8aR)-8-(2-((2R,4R)-4-((tert-butyldimethylsilyl)oxy)-6-oxotetrahydro-2H-pyran-2-yl)ethyl)-3,7-dimethyl-1,2,3,7,8,8a-hexahydronaphthalen-1-yl (2-(2-(2-(2-((2-(2,6-dioxopiperidin-3-yl)-1,3-dioxoisoindolin-4-yl)oxy)acetamido)ethoxy)ethoxy)ethyl)carbamate], the DC50 was less than 50 nM.

Turning to `C[C@H]1C=C2C=C[C@H](C)[C@H](CC[C@@H]3C[C@@H](O)CC(=O)O3)[C@H]2[C@@H](OC(=O)NCCOCCOCCNC(=O)COc2cccc3c2C(=O)N(C2CCC(=O)NC2=O)C3=O)C1` (stereo partly drawn) [Compound 139, (1S,3R,7S,8S,8aR)-8-(2-((2R,4R)-4-hydroxy-6-oxotetrahydro-2H-pyran-2-yl)ethyl)-3,7-dimethyl-1,2,3,7,8,8a-hexahydronaphthalen-1-yl (2-(2-(2-(2-((2-(2,6-dioxopiperidin-3-yl)-1,3-dioxoisoindolin-4-yl)oxy)acetamido)ethoxy)ethoxy)ethyl)carbamate], the DC50 fell in the range of 50 to 500 nM.

Take `C[C@H]1C=C2C=C[C@H](C)[C@H](CC[C@@H]3C[C@@H](O[Si](C)(C)C(C)(C)C)CC(=O)O3)[C@H]2[C@@H](OC(=O)NCCOCCOCC(=O)Nc2cccc3c2C(=O)N(C2CCC(=O)NC2=O)C3=O)C1` (stereo partly drawn) [Compound 142, (1S,3R,7S,8S,8aR)-8-(2-((2R,4R)-4-((tert-butyldimethylsilyl)oxy)-6-oxotetrahydro-2H-pyran-2-yl)ethyl)-3,7-dimethyl-1,2,3,7,8,8a-hexahydronaphthalen-1-yl (2-(2-(2-((2-(2,6-dioxopiperidin-3-yl)-1,3-dioxoisoindolin-4-yl)amino)-2-oxoethoxy)ethoxy)ethyl)carbamate]: the DC50 was 50 to 500 nM.

Turning to `C[C@H]1C=C2C=C[C@H](C)[C@H](CC[C@@H]3C[C@@H](O)CC(=O)O3)[C@H]2[C@@H](OC(=O)NCCOCCOCC(=O)Nc2cccc3c2C(=O)N(C2CCC(=O)NC2=O)C3=O)C1` (stereo partly drawn) [Compound 143, (1S,3R,7S,8S,8aR)-8-(2-((2R,4R)-4-hydroxy-6-oxotetrahydro-2H-pyran-2-yl)ethyl)-3,7-dimethyl-1,2,3,7,8,8a-hexahydronaphthalen-1-yl (2-(2-(2-((2-(2,6-dioxopiperidin-3-yl)-1,3-dioxoisoindolin-4-yl)amino)-2-oxoethoxy)ethoxy)ethyl)carbamate], the DC50 was less than 50 nM.

On to `C[C@H]1C=C2C=C[C@H](C)[C@H](CC[C@@H]3C[C@@H](O[Si](C)(C)C(C)(C)C)CC(=O)O3)[C@H]2[C@@H](OC(=O)NCCOCC(=O)NCC(=O)Nc2cccc3c2C(=O)N(C2CCC(=O)NC2=O)C3=O)C1` (stereo partly drawn) [Compound 144, (1S,3R,7S,8S,8aR)-8-(2-((2R,4R)-4-((tert-butyldimethylsilyl)oxy)-6-oxotetrahydro-2H-pyran-2-yl)ethyl)-3,7-dimethyl-1,2,3,7,8,8a-hexahydronaphthalen-1-yl (2-(2-((2-((2-(2,6-dioxopiperidin-3-yl)-1,3-dioxoisoindolin-4-yl)amino)-2-oxoethyl)amino)-2-oxoethoxy)ethyl)carbamate], for which the DC50 lay within 50 to 500 nM.

Regarding `C[C@H]1C=C2C=C[C@H](C)[C@H](CC[C@@H]3C[C@@H](O)CC(=O)O3)[C@H]2[C@@H](OC(=O)NCCOCC(=O)NCC(=O)Nc2cccc3c2C(=O)N(C2CCC(=O)NC2=O)C3=O)C1` (stereo partly drawn) [Compound 145, (1S,3R,7S,8S,8aR)-8-(2-((2R,4R)-4-hydroxy-6-oxotetrahydro-2H-pyran-2-yl)ethyl)-3,7-dimethyl-1,2,3,7,8,8a-hexahydronaphthalen-1-yl (2-(2-((2-((2-(2,6-dioxopiperidin-3-yl)-1,3-dioxoisoindolin-4-yl)amino)-2-oxoethyl)amino)-2-oxoethoxy)ethyl)carbamate], the DC50 is less than 50 nM.

Regarding `C[C@H]1C=C2C=C[C@H](C)[C@H](CC[C@@H]3C[C@@H](O[Si](C)(C)C(C)(C)C)CC(=O)O3)[C@H]2[C@@H](OC(=O)NCCc2ccc(CC(=O)Nc3cccc4c3C(=O)N(C3CCC(=O)NC3=O)C4=O)cc2)C1` (stereo partly drawn) [Compound 146, (1S,3R,7S,8S,8aR)-8-(2-((2R,4R)-4-((tert-butyldimethylsilyl)oxy)-6-oxotetrahydro-2H-pyran-2-yl)ethyl)-3,7-dimethyl-1,2,3,7,8,8a-hexahydronaphthalen-1-yl (4-(2-((2-(2,6-dioxopiperidin-3-yl)-1,3-dioxoisoindolin-4-yl)amino)-2-oxoethyl)phenethyl)carbamate], the DC50 was less than 50 nM.

For the compound `C[C@H]1C=C2C=C[C@H](C)[C@H](CC[C@@H]3C[C@@H](O)CC(=O)O3)[C@H]2[C@@H](OC(=O)NCCc2ccc(CC(=O)Nc3cccc4c3C(=O)N(C3CCC(=O)NC3=O)C4=O)cc2)C1` (stereo partly drawn) [Compound 147, (1S,3R,7S,8S,8aR)-8-(2-((2R,4R)-4-hydroxy-6-oxotetrahydro-2H-pyran-2-yl)ethyl)-3,7-dimethyl-1,2,3,7,8,8a-hexahydronaphthalen-1-yl (4-(2-((2-(2,6-dioxopiperidin-3-yl)-1,3-dioxoisoindolin-4-yl)amino)-2-oxoethyl)phenethyl)carbamate], the DC50 is less than 50 nM.

As for `C[C@H]1C=C2C=C[C@H](C)[C@H](CC[C@@H]3C[C@@H](O)CC(=O)O3)[C@H]2[C@@H](OC(=O)C(C)(C)CCC(=O)NCCOCCOCCNc2cccc3nnn(C4CCC(=O)NC4=O)c(=O)c23)C1` (stereo partly drawn) [Compound 152, (1S,3R,7S,8S,8aR)-8-(2-((2R,4R)-4-hydroxy-6-oxotetrahydro-2H-pyran-2-yl)ethyl)-3,7-dimethyl-1,2,3,7,8,8a-hexahydronaphthalen-1-yl 5-((2-(2-(2-((3-(2,6-dioxopiperidin-3-yl)-4-oxo-3,4-dihydrobenzo[d][1,2,3]triazin-5-yl)amino)ethoxy)ethoxy)ethyl)amino)-2,2-dimethyl-5-oxopentanoate], the DC50 is less than 50 nM.

With `C[C@H]1C=C2C=C[C@H](C)[C@H](CC[C@@H]3CC=CC(=O)O3)[C@H]2[C@@H](OC(=O)NCCOCCOCCNc2cccc3c2C(=O)N(C2CCC(=O)NC2=O)C3=O)C1` (stereo partly drawn) [Compound 153, (1S,3R,7S,8S,8aR)-3,7-dimethyl-8-(2-((R)-6-oxo-3,6-dihydro-2H-pyran-2-yl)ethyl)-1,2,3,7,8,8a-hexahydronaphthalen-1-yl (2-(2-(2-((2-(2,6-dioxopiperidin-3-yl)-1,3-dioxoisoindolin-4-yl)amino)ethoxy)ethoxy)ethyl)carbamate], the DC50 is less than 50 nM.

Usually DC50 stands for the concentration giving 50% degradation.
